Measurements published in ChEMBL document CHEMBL5385864, “Pose, duplicate, then elaborate: Steps towards increased affinity for inhibitors targeting the specificity surface of the Pim-1 kinase” (Eur J Med Chem, 2023).
Calls of active or inactive are those of the source. The rule behind the calls is not given here.

Assays:
[1] = biological target: T1, Serine/threonine-protein kinase pim-1 (Homo sapiens, UniProt P11309); assay: Inhibition of Pim-1 activity (unknown origin) assessed as residual activity at 100 uM by Eurofins radiometric assay relative to control
[2] = biological target: T1, Serine/threonine-protein kinase pim-1; assay: Inhibition of Pim-1 activity (unknown origin) by Eurofins radiometric assay
[3] = biological target: T1, Serine/threonine-protein kinase pim-1; assay: Inhibition of Pim-1 in human NCE-G 55T2 cells assessed as reduction in p21 phosphorylation at Thr145 residue at 0.3 mM incubated for 24 hrs by Western blot analysis; format: cell-based
HCT-116 = assay: Cytotoxicity against human HCT-116 cells assessed as inhibition of cell growth incubated for 3 days by WST-8 assay; details: HCT-116, 72 h
[4] = Cytotoxicity against human NCE-G 55T2 cells assessed as inhibition of cell growth incubated for 3 days by WST-8 assay; details: NCE-G 55T2, 72 h
[5] = biological target: T1, Serine/threonine-protein kinase pim-1; assay: Inhibition of Pim-1 activity (unknown origin) at 100 uM by Eurofins radiometric assay

SMILES | Activity [1] | IC50 [2] | inhibition [5] | also measured
Cc1cc(O)cc2occ(Cc3ccc(C(=O)O)cc3)c12 | < 50% | – | – | –
O=C(O)c1ccc(Cc2coc3cc(O)ccc23)cc1 | < 50% | 26.4 µM | – | –
O=C1Nc2ccccc2/C1=C\c1ccc(C(=O)O)cc1 | – | – | – | IC50 (HCT-116): 200 µM; IC50 [4]: 100 µM
Nc1ccc2c(c1)NC(=O)C2Cc1ccc(C(=O)O)cc1 (centres undefined) | – | – | Active | –

The next lines start with results.

Activity [1] | IC50 [2] | inhibition [5] | SMILES | also measured
– | 0.6 µM | – | Nc1ccc2c(c1)NC(=O)/C2=C/c1ccc(C(=O)O)cc1 | inhibition [3]: Active
– | – | Active | COC(=O)c1ccc(/C=C2/C(=O)Nc3cc(N)ccc32)cc1 | –
